Laboratory results as given in the supplement of paper PMC10307832.

What was measured:
Assay in all cases: relative viability (nuclei count vs DMSO), 5 days (fraction); higher = more cells survive
[1] = tested on: SK-MES-1
Summary of the method: (§1)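 Lung cancer cell lines were seeded in 1536-well plates and dosed by pin tool the next day, with either a single drug or a fixed anchor-drug dose combined with five library-drug doses (not always all listed) spaced in √10 steps. Five days later, one step fixed the cells and stained their nuclei (final 0.05% Triton X-100, 1% formaldehyde, 1 ug/ml Hoechst), and nuclei were counted on 4× images. Relative viability is the nuclei count in treated wells divided by the count in vehicle wells, and each value is the median of duplicate plates.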

[2] = tested on: SK-LU-1
Summary of the method: as §1

[3] = tested on: HCC-366
Summary of the method: as §1

[4] = tested on: NCI-H2228
Summary of the method: as §1

[5] = tested on: NCI-H2347
Summary of the method: as §1

[6] = tested on: NCI-H2170
Summary of the method: as §1

[7] = tested on: NCI-H650
Summary of the method: as §1

[8] = tested on: RERF-LC-KJ
Summary of the method: as §1

[9] = tested on: NCI-H1915
Summary of the method: as §1

[10] = tested on: LC-2-ad
Summary of the method: as §1

[11] = tested on: NCI-H1975
Summary of the method: as §1

[12] = tested on: A-427
Summary of the method: as §1

[13] = tested on: NCI-H23
Summary of the method: as §1

[14] = tested on: NCI-H1355
Summary of the method: as §1

[15] = tested on: SW 1573
Summary of the method: as §1

[16] = tested on: NCI-H1755
Summary of the method: as §1

[17] = tested on: UMC-11
Summary of the method: as §1

[18] = tested on: HCC-827
Summary of the method: as §1

[19] = tested on: NCI-H1734
Summary of the method: as §1

[20] = tested on: NCI-H1993
Summary of the method: as §1

[21] = tested on: NCI-H1792
Summary of the method: as §1

CCNC(=O)c1noc(-c2cc(C(C)C)c(O)cc2O)c1-c1ccc(CN2CCOCC2)cc1 [Luminespib] + CS(=O)(=O)CCNCc1ccc(-c2ccc3ncnc(Nc4ccc(OCc5cccc(F)c5)c(Cl)c4)c3c2)o1 [Lapatinib] (partner 2 µM)
relative viability ([1]; first compound 0.002 µM): 0.461
relative viability ([1]; first compound 0.006325 µM): 0.459
relative viability ([1]; first compound 0.02 µM): 0.407
relative viability ([1]; first compound 0.06325 µM): 0.265
relative viability ([1]; first compound 0.2 µM): 0.159
relative viability ([2]; first compound 0.002 µM): 0.905
relative viability ([2]; first compound 0.006325 µM): 0.469
relative viability ([2]; first compound 0.02 µM): 0.424
relative viability ([2]; first compound 0.06325 µM): 0.164
relative viability ([2]; first compound 0.2 µM): 0.133
relative viability ([3]; first compound 0.002 µM): 1.07
relative viability ([3]; first compound 0.006325 µM): 1.05
relative viability ([3]; first compound 0.02 µM): 0.13
relative viability ([3]; first compound 0.06325 µM): 0.0159
relative viability ([3]; first compound 0.2 µM): 0.0157
relative viability ([4]; first compound 0.002 µM): 1.2
relative viability ([4]; first compound 0.006325 µM): 0.808
relative viability ([4]; first compound 0.02 µM): 0.191
relative viability ([4]; first compound 0.06325 µM): 0.126
relative viability ([4]; first compound 0.2 µM): 0.117
relative viability ([5]; first compound 0.002 µM): 0.941
relative viability ([5]; first compound 0.02 µM): 0.876
relative viability ([5]; first compound 0.06325 µM): 0.758
relative viability ([5]; first compound 0.2 µM): 0.88
relative viability ([6]; first compound 0.002 µM): 0.254
relative viability ([6]; first compound 0.006325 µM): 0.28
relative viability ([6]; first compound 0.02 µM): 0.248
relative viability ([6]; first compound 0.06325 µM): 0.291
relative viability ([6]; first compound 0.2 µM): 0.203
relative viability ([7]; first compound 0.002 µM): 0.888
relative viability ([7]; first compound 0.006325 µM): 0.838
relative viability ([7]; first compound 0.02 µM): 0.507
relative viability ([7]; first compound 0.06325 µM): 0.0944
relative viability ([7]; first compound 0.2 µM): 0.149
relative viability ([8]; first compound 0.002 µM): 0.825
relative viability ([8]; first compound 0.006325 µM): 0.812
relative viability ([8]; first compound 0.02 µM): 0.621
relative viability ([8]; first compound 0.06325 µM): 0.726
relative viability ([8]; first compound 0.2 µM): 0.294
relative viability ([9]; first compound 0.002 µM): 0.943
relative viability ([9]; first compound 0.006325 µM): 0.957
relative viability ([9]; first compound 0.02 µM): 0.932
relative viability ([9]; first compound 0.06325 µM): 0.99
relative viability ([9]; first compound 0.2 µM): 0.284
relative viability ([10]; first compound 0.002 µM): 0.928
relative viability ([10]; first compound 0.006325 µM): 0.954
relative viability ([10]; first compound 0.02 µM): 0.659
relative viability ([10]; first compound 0.06325 µM): 0.498
relative viability ([10]; first compound 0.2 µM): 0.0905
relative viability ([11]; first compound 0.002 µM): 0.951
relative viability ([11]; first compound 0.006325 µM): 0.739
relative viability ([11]; first compound 0.02 µM): 0.291
relative viability ([11]; first compound 0.06325 µM): 0.126
relative viability ([11]; first compound 0.2 µM): 0.113
relative viability ([12]; first compound 0.002 µM): 1.08
relative viability ([12]; first compound 0.006325 µM): 1.02
relative viability ([12]; first compound 0.02 µM): 0.771
relative viability ([12]; first compound 0.06325 µM): 1.04
relative viability ([12]; first compound 0.2 µM): 0.975
relative viability ([13]; first compound 0.002 µM): 1.02
relative viability ([13]; first compound 0.006325 µM): 1.1
relative viability ([13]; first compound 0.02 µM): 0.587
relative viability ([13]; first compound 0.06325 µM): 0.139
relative viability ([13]; first compound 0.2 µM): 0.112
relative viability ([14]; first compound 0.002 µM): 0.891
relative viability ([14]; first compound 0.006325 µM): 1.02
relative viability ([14]; first compound 0.02 µM): 0.461
relative viability ([14]; first compound 0.06325 µM): 0.664
relative viability ([14]; first compound 0.2 µM): 0.153
relative viability ([15]; first compound 0.002 µM): 1.2
relative viability ([15]; first compound 0.006325 µM): 1.14
relative viability ([15]; first compound 0.02 µM): 0.711
relative viability ([15]; first compound 0.06325 µM): 0.439
relative viability ([15]; first compound 0.2 µM): 0.127
relative viability ([16]; first compound 0.002 µM): 1.09
relative viability ([16]; first compound 0.006325 µM): 0.97
relative viability ([16]; first compound 0.02 µM): 1.07
relative viability ([16]; first compound 0.06325 µM): 0.502
relative viability ([16]; first compound 0.2 µM): 0.176
relative viability ([17]; first compound 0.002 µM): 0.85
relative viability ([17]; first compound 0.006325 µM): 0.834
relative viability ([17]; first compound 0.02 µM): 0.395
relative viability ([17]; first compound 0.06325 µM): 0.345
relative viability ([17]; first compound 0.2 µM): 0.125
relative viability ([18]; first compound 0.002 µM): 0.184
relative viability ([18]; first compound 0.006325 µM): 0.184
relative viability ([18]; first compound 0.02 µM): 0.172
relative viability ([18]; first compound 0.06325 µM): 0.235
relative viability ([18]; first compound 0.2 µM): 0.185
relative viability ([19]; first compound 0.002 µM): 1.08
relative viability ([19]; first compound 0.006325 µM): 1
relative viability ([19]; first compound 0.02 µM): 0.675
relative viability ([19]; first compound 0.06325 µM): 0.123
relative viability ([19]; first compound 0.2 µM): 0.132
relative viability ([20]; first compound 0.002 µM): 0.874
relative viability ([20]; first compound 0.006325 µM): 0.864
relative viability ([20]; first compound 0.02 µM): 0.654
relative viability ([20]; first compound 0.06325 µM): 0.491
relative viability ([20]; first compound 0.2 µM): 0.418
relative viability ([21]; first compound 0.002 µM): 0.855
relative viability ([21]; first compound 0.006325 µM): 0.778
relative viability ([21]; first compound 0.02 µM): 0.717
relative viability ([21]; first compound 0.06325 µM): 0.474
relative viability ([21]; first compound 0.2 µM): 0.587
